In patent US20230132823A1, “BI-FUNCTIONAL COMPOUNDS AND METHODS FOR TARGETED UBIQUITINATION OF ANDROGEN RECEPTOR” (MONTELINO THERAPEUTICS, INC., priority 2020, published 2023):

How the values were obtained:
22Rv1-Enz^R = 22Rv1-Enz^R cell proliferation assay, GIC50 (Experimental Example 4); format: cell-based; settings: Homo sapiens; 6-day culture, cell media changed every 24 hours
Method: Selected compounds were tested in the human prostate cancer cell line, 22Rv1-Enz^R as described in Geun Taek Lee et al., Molecular Cancer Therapeutics, 20:490-9 (2021). These procedures are similar to that described in Experimental Example 1, above, except that the assay conditions are a 6-day culture with cell media changed every 24 hours.
In the Table: (+)—GIC50<20 μM; (++)—GIC50<10 μM; (+++)—GIC50<1 μM.

22Rv1 = 22Rv1 cell proliferation assay (Experimental Example 1, cell count); format: cell-based; settings: Homo sapiens, 22Rv1, read-out: 22Rv1 cell count decrease at 10 μM for 48 hours; 10 μM (method: four days); read-out: 22Rv1 cell count decrease at 10 μM
Method: The human prostate cancer cell line, 22Rv1 has been reported to express a high level of AR-V7. […] Standard culture media was RPMI-1640 supplemented with 10% fetal bovine serum. The test compound initially was dissolved in DMSO at 50 mM. This stock solution was then diluted as needed for the indicated concentrations. […]
In the Table: (+)—the cell count decreased between 0 and 20%; (++)—the cell count decreased […]; (+++)—the cell count decreased by more than 50%.

22Rv1-Enz^R cells = test: 22Rv1-Enz^R cell proliferation (cell count, Experimental Example 3); format: cell-based, human; settings: 10 μM, 4 days, MG-132 (5 μM) pretreatment
Method: The human prostate cancer cell line, 22Rv1 has been reported to express a high level of AR-V7. Thus, 22Rv1 was seeded at 50,000 cells/well on a 24-well plate in quadruplicates and treated with test compound in concentrations ranging up to 20 μM for four days. Standard culture media was RPMI-1640 supplemented with 10% fetal bovine serum. The test compound initially was dissolved in DMSO at 50 mM. This stock solution was then diluted as needed for the indicated concentrations. At the end of the four-day period, cells were harvested using 1% trypsin and counted using an automated cell counter.
Cell Culture. Human CaP cell lines, LNCaP, 22Rv1, VCaP, PC3, and DU145 are obtained from the American Type Culture Collection (ATCC) and maintained in the standard culture media: RPMI-1640 supplemented with 10% fetal bovine serum (FBS). LNCaP, 22Rv1, and VCaP are androgen-responsive cell lines, while PC3 and DU145 are not. To establish SAT resistant CaP cell lines, LNCaP, 22Rv1, and VCaP are treated continuously with 10-50 μM abiraterone, apalutamide, darolutamide, or enzalutamide. After 3-6 months, stable cell lines are established and designated as LNCaP-Abi^R, LNCaP-Apa^R, LNCaP-Daro^R, LNCaP-Enz^R, VCaP-Abi^R, VCaP-Apa^R, VCaP-Daro^R, VCaP-Enz^R, 22Rv1-Abi^R, 22Rv1-Apa^R, 22Rv1-Daro^R and 22Rv1-Enz^R. Unless otherwise specified, the standard culture media for these SAT-resistant cell lines included 10 μM of their respective SAT. For the proteasome inhibitor study, the inhibitors MG132 and Epoxomicin are used. The E3 ligase inhibitors Heclin, Nutlin 3a, Thalidomide, and VH298 are used. Cell lines obtained from ATCC are confirmed by checking their morphology using optical microscopy, establishing baselines for cell proliferation, verifying species of origin using isoenzymology, and characterizing the cell's DNA fingerprint using short tandem repeat (STR) profiling. Mycoplasma contamination is also assessed using a PCR based detection system.

22Rv1 cells = test: Apoptosis assay (annexin-V, TUNEL) in 22Rv1; format: cell-based, human; settings: 22Rv1, 1 μM, 0 to 48 hours; starts approximately three hours after treatment, increases through 48 hours
Method: Apoptosis Assay. An apoptosis assay is carried out using the Thermo Fisher ApoDETECT Annexin V-FITC kit following the protocol recommended by the vendor. […] Then, fixed cells are incubated with Annexin V-FITC in PBS solution for 30 minutes at room temperature. After washing three times with PBS, cells are treated with 300 nM DAPI in PBS for 5 minutes at room temperature. Finally, after washing three times with PBS, mounting solution is added and the cells are visualized using immunofluorescence microscopy. Next, a TUNEL assay is performed using Promega DeadEnd Fluorometric TUNEL system. After treatment with Test Compound and fixation as described above in the Annexin-V experiment, 100 μl of equilibration buffer is incubated for 10 min. Then, 50 μl of TdT reaction mix is added and incubated for 60 min at 37° C. in a humidified chamber. Finally, stop solution is added and samples are mounted on slides using mounting medium. To assess non-specific cytotoxicity, an LDH assay kit is used.

Row | SMILES | IC50 (22Rv1-Enz^R) [µM] | inhibition at 10 µM (22Rv1) [%] | other results
1 | Cl.NCCCCCCCCCCNc1cccc2c1C(=O)N(C1CCC(=O)NC1=O)C2=O (stereo not shown) [Example 34, 4-((10-aminodecyl)amino)-2-(2,6-dioxopiperidin-3-yl)isoindoline-1,3-dione hydrochloride] | – | < 50 | reduction of 22Rv1-Enz^R cell counts after pretreatment with MG-132 (22Rv1-Enz^R cells): substantially blocked
2 | CN[C@@H](C)C(=O)N[C@H](C(=O)N1Cc2cc(OCCOCCOc3c(-c4csc(N5CCOCC5)n4)ccc(F)c3F)ccc2C[C@H]1C(=O)N[C@@H]1CCCc2ccccc21)C(C)(C)C.Cl.Cl [Example 35, (S)-7-(2-(2-(2,3-difluoro-6-(2-morpholinothiazol-4-yl)phenoxy)ethoxy)ethoxy)-2-((S)-3,3-dimethyl-2-((S)-2-(methylamino)propanamido)butanoyl)-N-((R)-1,2,3,4-tetrahydronaphthalen-1-yl)-1,2,3,4-tetrahydroisoquinoline-3-carboxamide dihydrochloride] | – | > 50 | reduction of 22Rv1-Enz^R cell counts after pretreatment with MG-132 (22Rv1-Enz^R cells): substantially blocked
3 | Cc1ncsc1-c1ccc([C@H](C)NC(=O)[C@@H]2C[C@@H](O)CN2C(=O)[C@@H](NC(=O)CCCCOc2c(F)ccc3sc(N4CCOCC4)nc23)C(C)(C)C)cc1 [Example 42, (2S,4R)-1-((S)-2-(5-((5-fluoro-2-morpholinobenzo[d]thiazol-4-yl)oxy)pentanamido)-3,3-dimethylbutanoyl)-4-hydroxy-N-((S)-1-(4-(4-methylthiazol-5-yl)phenyl)ethyl)pyrrolidine-2-carboxamide] | < 10 | – | –
4 | Cc1ncsc1-c1ccc([C@H](C)NC(=O)[C@@H]2C[C@@H](O)CN2C(=O)[C@@H](NC(=O)CCCCCCOc2c(F)ccc3sc(N4CCOCC4)nc23)C(C)(C)C)cc1 [Example 43, (2S,4R)-1-((S)-2-(7-((5-fluoro-2-morpholinobenzo[d]thiazol-4-yl)oxy)heptanamido)-3,3-dimethylbutanoyl)-4-hydroxy-N-((S)-1-(4-(4-methylthiazol-5-yl)phenyl)ethyl)pyrrolidine-2-carboxamide] | < 20 | – | –
5 | O=C(O)CCCCNC(=O)COc1c(-c2csc(N3CCOCC3)n2)ccc(F)c1F [Example C1, reference compound] | – | – | apoptosis, annexin-V assay (22Rv1 cells): no change in apoptosis

Further lines, with some results ahead:

Row | IC50 (22Rv1-Enz^R) [µM] | SMILES | inhibition at 10 µM (22Rv1) [%] | other results
6 | < 20 | O=C(COc1c(-c2csc(N3CCOCC3)n2)ccc(F)c1F)NCCCCCCNc1cccc2c1C(=O)N(C1CCC(=O)NC1=O)C2=O (stereo not shown) [Example 1, 2-(2,3-difluoro-6-(2-morpholinothiazol-4-yl)phenoxy)-N-(6-((2-(2,6-dioxopiperidin-3-yl)-1,3-dioxoisoindolin-4-yl)amino)hexyl)acetamide] | < 50 | –
7 | < 20 | O=C(COc1c(-c2csc(N3CCOCC3)n2)ccc(F)c1F)NCCCCCCCCCCNc1cccc2c1C(=O)N(C1CCC(=O)NC1=O)C2=O (stereo not shown) [Example 3, 2-(2,3-difluoro-6-(2-morpholinothiazol-4-yl)phenoxy)-N-(10-((2-(2,6-dioxopiperidin-3-yl)-1,3-dioxoisoindolin-4-yl)amino)decyl)acetamide] | < 50 | –
8 | < 1 | Cc1ccc(-c2csc(N3CCOCC3)n2)c(OCC(=O)NCCCCC(=O)N[C@H](C(=O)N2C[C@H](O)C[C@H]2C(=O)N[C@@H](C)c2ccc(-c3scnc3C)cc2)C(C)(C)C)c1C [Example 37, (2S,4R)-1-((S)-2-(5-(2-(2,3-dimethyl-6-(2-morpholinothiazol-4-yl)phenoxy)acetamido)pentanamido)-3,3-dimethylbutanoyl)-4-hydroxy-N-((S)-1-(4-(4-methylthiazol-5-yl)phenyl)ethyl)pyrrolidine-2-carboxamide] | – | –
9 | < 20 | Cc1ncsc1-c1ccc([C@H](C)NC(=O)[C@@H]2C[C@@H](O)CN2C(=O)[C@@H](NC(=O)CCC(=O)NCCCOc2c(-c3csc(N4CCOCC4)n3)ccc(F)c2F)C(C)(C)C)cc1 [Example 38, N^1-(3-(2,3-difluoro-6-(2-morpholinothiazol-4-yl)phenoxy)propyl)-N^4-((S)-1-((2S,4R)-4-hydroxy-2-(((S)-1-(4-(4-methylthiazol-5-yl)phenyl)ethyl)carbamoyl)pyrrolidin-1-yl)-3,3-dimethyl-1-oxobutan-2-yl)succinamide] | – | –
10 | < 20 | Cc1ncsc1-c1ccc([C@H](C)NC(=O)[C@@H]2C[C@@H](O)CN2C(=O)[C@@H](NC(=O)CCC(=O)NCCOCCOc2c(-c3csc(N4CCOCC4)n3)ccc(F)c2F)C(C)(C)C)cc1 [Example 39, N^1-(2-(2-(2,3-difluoro-6-(2-morpholinothiazol-4-yl)phenoxy)ethoxy)ethyl)-N^4-((S)-1-((2S,4R)-4-hydroxy-2-(((S)-1-(4-(4-methylthiazol-5-yl)phenyl)ethyl)carbamoyl)pyrrolidin-1-yl)-3,3-dimethyl-1-oxobutan-2-yl)succinamide] | – | –
11 | < 1 | Cc1ncsc1-c1ccc([C@H](C)NC(=O)[C@@H]2C[C@@H](O)CN2C(=O)[C@@H](NC(=O)CNCCOCCOc2c(-c3csc(N4CCOCC4)n3)ccc(F)c2F)C(C)(C)C)cc1 [Example 40, (2S,4R)-1-((S)-2-(2-((2-(2-(2,3-difluoro-6-(2-morpholinothiazol-4-yl)phenoxy)ethoxy)ethyl)amino)acetamido)-3,3-dimethylbutanoyl)-4-hydroxy-N-((S)-1-(4-(4-methylthiazol-5-yl)phenyl)ethyl)pyrrolidine-2-carboxamide] | – | –
12 | < 10 | Cc1ncsc1-c1ccc([C@H](C)NC(=O)[C@@H]2C[C@@H](O)CN2C(=O)[C@@H](NC(=O)CCCCOc2c(-c3csc(N4CCOCC4)n3)ccc(F)c2F)C(C)(C)C)cc1 [Example 41, (2S,4R)-1-((S)-2-(5-(2,3-difluoro-6-(2-morpholinothiazol-4-yl)phenoxy)pentanamido)-3,3-dimethylbutanoyl)-4-hydroxy-N-((S)-1-(4-(4-methylthiazol-5-yl)phenyl)ethyl)pyrrolidine-2-carboxamide] | – | –
